Experimental data taken from patent US20120214802A1, “PYRROLIDINE COMPOUNDS WHICH INHIBIT BETA-SECRETASE ACTIVITY AND METHODS OF USE THEREOF” (priority 2009, published 2012).
Read-outs that look alike come from different tables or passages of the source.

Tests used:
memapsin 2 [1] = biological target: memapsin 2 (Homo sapiens, UniProt P56817); test: Inhibition of memapsin 2 beta-secretase activity (fluorogenic substrate FS-2); type: biochemical; conditions: pH 4, 37° C., read-out: M2 Ki
How it was run: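 Memapsin 2 pre-incubated with compound for 20 min at pH 4, 37° C. Reaction started with fluorogenic substrate FS-2, […], derived from Swedish-variant APP beta-secretase site; inhibition measured from fluorescence.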

memapsin 2 [2] = biological target: T1, memapsin 2 (Cricetulus griseus, UniProt G3IAK4); test: Cellular Aβ IC50 determination (Aβ40 sandwich ELISA); type: cell-based, Chinese hamster; conditions: CHO cells over-expressing human APP695 with London and Swedish mutations, 24 h, read-out: M2 IC50
T1 construct: endogenous in cells; host or cells: Chinese hamster ovary cells over-expressing human APP695 (London + Swedish)
How it was run: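 CHO cells overexpressing human APP695 (London and Swedish mutations) treated 48 h post-seeding with serially diluted compounds (top near 4 μM, 0.4% DMSO), 24 h at 37° C, 5% CO2. Medium Aβ40 measured by sandwich ELISA; levels relative to control fitted to 4-parameter IC50 model.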

cathepsin D = cathepsin D (Homo sapiens, UniProt P07339); test: Inhibition of cathepsin D activity (MALDI-TOF, substrate ELDLAVEFWHDR); type: biochemical
Method: [The source words this procedure for another target and reports this target under the same test.] (§1) A substrate peptide NH3-ELDLAVEFWHDR-CO2 (SEQ ID NO.: 1) was dissolved at 2 mg/mL in 10% glacial acetic acid and diluted into 0.009M NaOH to obtain μM concentration at pH 4.1. After equilibration at 37 degrees C., the reactions were initiated by the addition of an aliquot of memapsin 2. Aliquots were removed at time intervals, and combined with an equal volume of MALDI-TOF matrix (α-hydroxycinnamic acid in acetone, 20 mg/mL) and immediately spotted in duplicate onto a stainless-steel MALDI sample plate. MALDI-TOF mass spectrometry was performed on a PE Biosystems Voyager DE. The instrument was operated at 25,000 accelerating volts in positive mode with a 150 ns delay. Ions with a mass-to-charge ratio (m/z) were detected in the range of 650-2000 atomic mass units. Data were analyzed by the Voyager Data Explorer module to obtain ion intensity data for mass species of substrates and corresponding products in a given mixture. Relative product formation was calculated as the ratio of signal intensity of the product to the sum of signal intensities of both product and the corresponding substrate. Relative product formed per unit time was obtained from non-linear regression analysis of the data representing the initial 15% formation of product using the model:
where k was the relative hydrolytic rate constant and T was time in seconds. Initial rates were expressed relative to uninhibited controls and fit to a tight-binding model of competitive inhibition as above.

CYP3A4 = biological target: T2, CYP3A4 (Homo sapiens, UniProt P08684); test: CYP3A4 inhibition (midazolam metabolism in human liver microsomes); type: in vitro ADME; conditions: substrate midazolam, read-out: CYP 3A4Ki
T2 construct: host or cells: human liver microsomes
How it was run: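 Human liver microsomes (0.1 mg/mL) with midazolam at 1.25–10 μM and compound at 0.078–10 μM, in 100 mM phosphate pH 7.4 with NADPH regeneration at 37.2 °C, sampled at 20, 30 and 40 min. 1′-Hydroxymidazolam was quantified by LC-MS/MS. Ki was obtained by Dixon plots across substrate concentrations.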

[3] = Hepatic intrinsic clearance in liver microsomes; type: in vitro ADME; conditions: human, pH 7.4, human liver microsomes, in vitro clearance, read-out: HLM CL
How it was run: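 Human liver microsomes in pH 7.4 phosphate buffer with EDTA, preincubated 5 min at 37° C, then started with NADPH; samples taken at 0, 5, 10, 20 and 30 min and parent measured by LC/MS/MS. Remaining compound relative to 0 min gave half-life and k1, scaled to in vivo clearance per Davies and Morris.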

memapsin 1 = biological target: T3, memapsin 1 (Homo sapiens, UniProt Q9Y5Z0); test: Inhibition of memapsin 1 beta-secretase activity (MALDI-TOF, substrate ELDLAVEFWHDR); type: biochemical; conditions: read-out: M1 Ki
T3 sequence (Q9Y5Z0 63-518): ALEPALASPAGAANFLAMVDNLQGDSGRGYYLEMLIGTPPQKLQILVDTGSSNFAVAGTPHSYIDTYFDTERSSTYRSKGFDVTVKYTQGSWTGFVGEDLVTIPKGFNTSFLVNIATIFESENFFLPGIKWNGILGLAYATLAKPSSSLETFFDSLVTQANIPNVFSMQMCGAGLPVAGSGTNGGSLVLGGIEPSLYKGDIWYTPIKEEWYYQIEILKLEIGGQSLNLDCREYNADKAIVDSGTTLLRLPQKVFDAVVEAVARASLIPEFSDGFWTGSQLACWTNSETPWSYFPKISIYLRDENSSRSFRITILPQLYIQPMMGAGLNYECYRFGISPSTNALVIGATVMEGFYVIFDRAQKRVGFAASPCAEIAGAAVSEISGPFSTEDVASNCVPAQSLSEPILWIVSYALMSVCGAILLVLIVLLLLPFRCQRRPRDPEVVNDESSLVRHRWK
Method: [The source words this procedure for another target and reports this target under the same test.] as §1
where k was the relative hydrolytic rate constant and T was time in seconds. […]

[4] = substrate peptide ELDLAVEFWHDR, pH 4.1, 37 degrees C, read-out: CD Ki

Chain of cathepsin D (P07339 65-412, species assumed): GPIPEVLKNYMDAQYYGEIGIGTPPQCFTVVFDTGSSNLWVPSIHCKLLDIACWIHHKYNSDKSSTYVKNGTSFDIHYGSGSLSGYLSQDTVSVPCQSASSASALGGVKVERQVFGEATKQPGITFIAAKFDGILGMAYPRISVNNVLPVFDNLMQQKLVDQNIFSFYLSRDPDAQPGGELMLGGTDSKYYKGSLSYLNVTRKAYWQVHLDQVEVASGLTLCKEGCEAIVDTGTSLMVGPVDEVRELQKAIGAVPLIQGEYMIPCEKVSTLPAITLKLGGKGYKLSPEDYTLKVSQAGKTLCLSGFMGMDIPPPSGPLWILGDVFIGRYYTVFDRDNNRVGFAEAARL
T1 sequence (G3IAK4 22-501): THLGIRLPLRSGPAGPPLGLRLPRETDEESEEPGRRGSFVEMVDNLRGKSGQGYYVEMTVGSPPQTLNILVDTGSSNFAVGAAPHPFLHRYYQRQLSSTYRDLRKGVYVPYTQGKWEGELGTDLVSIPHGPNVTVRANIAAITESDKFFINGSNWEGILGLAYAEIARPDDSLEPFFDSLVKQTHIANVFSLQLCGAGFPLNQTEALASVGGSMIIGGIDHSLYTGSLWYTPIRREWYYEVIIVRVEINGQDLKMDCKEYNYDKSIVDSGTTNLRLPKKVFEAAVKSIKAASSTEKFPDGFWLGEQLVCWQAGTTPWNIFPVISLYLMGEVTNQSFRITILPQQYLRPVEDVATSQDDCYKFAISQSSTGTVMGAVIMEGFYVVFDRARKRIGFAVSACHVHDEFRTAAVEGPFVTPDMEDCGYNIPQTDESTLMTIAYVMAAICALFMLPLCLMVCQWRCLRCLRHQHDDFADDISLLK
Chain of memapsin 2 (Homo sapiens, UniProt P56817) (P56817 46-501): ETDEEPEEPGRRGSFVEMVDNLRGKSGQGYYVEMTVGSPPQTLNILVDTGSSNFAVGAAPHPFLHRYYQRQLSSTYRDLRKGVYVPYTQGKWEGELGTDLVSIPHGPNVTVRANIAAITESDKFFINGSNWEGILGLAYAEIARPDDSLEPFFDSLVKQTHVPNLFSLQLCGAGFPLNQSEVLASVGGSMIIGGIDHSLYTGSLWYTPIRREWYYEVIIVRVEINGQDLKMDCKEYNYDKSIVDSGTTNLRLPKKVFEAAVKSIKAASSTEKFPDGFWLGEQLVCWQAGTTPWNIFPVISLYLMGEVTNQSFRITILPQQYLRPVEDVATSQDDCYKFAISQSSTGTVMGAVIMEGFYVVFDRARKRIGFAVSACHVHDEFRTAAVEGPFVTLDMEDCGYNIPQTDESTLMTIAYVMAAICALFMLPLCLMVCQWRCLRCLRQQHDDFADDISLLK
T2 sequence (P08684 whole entry): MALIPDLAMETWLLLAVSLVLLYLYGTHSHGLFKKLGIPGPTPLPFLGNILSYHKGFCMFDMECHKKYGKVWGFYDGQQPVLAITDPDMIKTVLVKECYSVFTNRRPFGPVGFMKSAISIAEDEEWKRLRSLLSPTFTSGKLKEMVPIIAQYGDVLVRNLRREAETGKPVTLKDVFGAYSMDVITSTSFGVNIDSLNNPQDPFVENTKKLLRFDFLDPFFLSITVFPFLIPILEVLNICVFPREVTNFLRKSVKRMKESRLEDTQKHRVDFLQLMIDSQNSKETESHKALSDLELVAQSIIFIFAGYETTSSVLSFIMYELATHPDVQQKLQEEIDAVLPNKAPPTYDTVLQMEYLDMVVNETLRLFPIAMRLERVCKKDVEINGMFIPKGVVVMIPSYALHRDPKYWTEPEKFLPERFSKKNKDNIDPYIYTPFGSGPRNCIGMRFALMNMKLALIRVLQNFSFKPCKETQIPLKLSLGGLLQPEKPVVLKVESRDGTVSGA

Ki (memapsin 2 [1]) [nM] | IC50 (memapsin 2 [2]) [nM] | Ki (cathepsin D; [4]) [nM] | Ki (CYP3A4) [nM] | CLint scaled at 200 μM [3] [mL/min/kg] | Ki (cathepsin D; read-out: CathD Ki) [nM] | Ki (memapsin 1) [nM] | Ki (memapsin 1; substrate peptide ELDLAVEFWHDR, pH 4.1, 37 degrees C) [nM] | SMILES
< 250 | 500 to 1000 | > 500 | 1000 to 5000 | < 400 |  |  |  | Cc1csc([C@H]2CCCN2C(=O)c2cccc(C(=O)N[C@@H](Cc3cc(F)cc(F)c3)[C@H](O)[C@H]3CCCN3)c2)n1 [1-44, N-((1R,2S)-3-(3,5-difluorophenyl)-1-hydroxy-1-((R)-pyrrolidin-2-yl)propan-2-yl)-3-((R)-2-(4-methylthiazol-2-yl)pyrrolidine-1-carbonyl)benzamide]
< 250 | < 500 | < 300 |  |  | 48.8 | 624 | > 500 | Cc1csc([C@H]2CCCN2C(=O)c2cc(C(=O)N[C@@H](Cc3ccccc3)[C@H](O)[C@H]3C[C@@H](OCc4ccccc4)CN3)cc(-n3cccc3)c2)n1 [1-25, N-((1R,2S)-1-((2R,4R)-4-(benzyloxy)pyrrolidin-2-yl)-1-hydroxy-3-phenylpropan-2-yl)-3-((R)-2-(4-methylthiazol-2-yl)pyrrolidine-1-carbonyl)-5-(1H-pyrrol-1-yl)benzamide]
